Results: US20100233145A1, “COMPOSITION USED AS A NUTRITIONAL SUPPLEMENT AND MEDICATION FOR THE TREATMENT OF DEGENERATIVE VISUAL DISORDERS AND INFLAMMATION” (APO PHARMACEUTICALS INTERNATIONAL B.V., priority 2006, published 2010)

Tested on: retina explants from rd1 mice
Assay: in vitro organ culture of retina explants under serum-free conditions
Format: cell-based, mouse
Conditions: for Number of rows of photoreceptors average ± SD, (n): rd/rd retina explants, glutathione 3 μg/ml, ALA 2 μg/ml, zeaxanthin 0.3 μg/ml, lutein 0.3 μg/ml, control 1.5 ± 0.3
Method: The in vitro-experiments were performed on an organ culture of retina explants under serum-free conditions, as described in […], Ahuja P, Holmqvist B, Azadi […], van Veen T (2001) “Mouse retina explants after long-term culture in serum-free medium.”, J Chem Neuroanat 22: 263-273. The described technique was carried out on retina explants from rd1 mice as used in the in-vivo experiments. Retinas of rd1 mice were transferred at PN3 to an in vitro culture on flat nitrocellulose membranes and were kept in […] medium for 8 and 21 days, corresponding with the age PN11 and […] of the animals. All experiments were performed paired, wherein untreated retinas were compared to retinas which were exposed to a treatment. […] In order to achieve these concentrations the correct measured quantities of stock solution as described for the in vivo experiments were added to the medium. […] The rows of photoreceptors in the outer nuclear layer (ONL) were counted in 5 slices of each composition, wherein of each slice six different sections were analysed corresponding with the sections in the in vivo experiments. The differences between treated and untreated retinas were compared statistically with Student's paired t-test, or Student's unpaired t-test, wherein differences in which p<0.05 were deemed significant.

Row | SMILES | Number of rows of photoreceptors average ± SD, (n) | number of rows of photoreceptor cells, treated versus untreated explant (rd1 explant, FIGS. 6a and 6b)
1 | O=C(O)CCCCC1CCSS1 (stereo not drawn) [alpha lipoic acid, thioctic acid] | 1.8 ± 0.5 (n-6) rows | 
2 | CC1=C[C@H](O)CC(C)(C)[C@H]1/C=C/C(C)=C/C=C/C(C)=C/C=C/C=C(C)/C=C/C=C(C)/C=C/C1=C(C)C[C@@H](O)CC1(C)C [Lutein, (3R, 3′R, 6′R)-(3,c-carotene-3,3′-diol] | 2.0 ± 0.8 (n-6) rows | 
3 | N[C@@H](CCC(=O)N[C@@H](CS)C(=O)NCC(=O)O)C(=O)O [glutathione, L-glutathione] | 2.0 ± 0.9 (n-6) rows | almost the same
4 | CC1=C(/C=C/C(C)=C/C=C/C(C)=C/C=C/C=C(C)/C=C/C=C(C)/C=C/C2=C(C)C[C@@H](O)CC2(C)C)C(C)(C)C[C@H](O)C1 [zeaxanthin, (3R, 3′R)-β,β-carotene-3,3′-diol] | 1.9 ± 0.7 (n-6) rows | 
